# According to PMC10408569, “Recruitment of hexahydroquinoline as anticancer scaffold targeting inhibition of wild and mutants EGFR (EGFR^WT, EGFR^T790M, and EGFR^L858R)” (Journal of Enzyme Inhibition and Medicinal Chemistry, 2023):
# How the values were obtained:
# NCI-H23 = test: NCI-60 anticancer screening (SRB); assay type: cell-based; conditions: Homo sapiens, five doses 0.01-100 µM, 48 h
# [1] = Cytotoxic effects in vitro on normal lung cells; assay type: cell-based; conditions: IMR-90 normal lung fibroblast cells; human normal lung fibroblast (IMR-90); read-out: IC50, cytotoxicity towards human normal cells IMR-90
# HOP-92 cells [2] = test: Annexin V-FITC apoptosis assay; assay type: cell-based, human; conditions: for total apoptosis, fold more than control / total apoptosis percentage: HOP-92; for early apoptosis ratio / late apoptosis ratio: HOP-92, 10 µM, 24 h; for early apoptosis ratio: control (DMSO) 0.70%; for late apoptosis ratio: control (DMSO) 1.80%; for total apoptosis percentage: control 2.5%
# Excerpt: The most important mechanism chemotherapeutics eradicate cancer cells is apoptosis induction[78]^,[79]. Cellular alterations brought on by apoptosis include the translocation of phosphatidylserine (PS) from the inside to the outside via the plasma membrane[80]^,[81]. PS can be detected outside the plasma membrane using a sensitive probe called Annexin V, which can bind to PS[82]^,[83]. […] HOP-92 cells were also overexpressed in NSC lung cancer. Therefore, they were selected to be subjected to apoptosis assay. HOP-92 cells were stained with AV/PI for 24 h at a mixed molar concentration of 10 µM with compounds 10c and 10d (Figure 7(A,B)). […] These findings supported that the cytotoxic effects of compounds 10c and 10d were due to the apoptotic mechanism rather than the necrotic pathway. The results of compounds 10c and 10d compared to the control sample are presented as a bar chart (Figure 7(D)).
# […] Annexin V-FITC apoptosis assay
# A protein known as annexin V-fluorescein isothiocyanate (Annexin V-FITC) binds phosphatidyl serine PS, which can be seen by staining. They used Annexin V-FITC and a propidium iodide counterstain (PI). Apoptosis was first induced by incubating cells in 96-microwell plates at a density of […] with the addition of the test substance (100 µL) for 24 hours. Then, 1-5 × 10^5 cells were centrifuged and resuspended in 500 µL of binding buffer. PI (5 µL) and Annexin V - FITC (5 µL) were added, and the mixture was incubated at room temperature for 5 minutes in the dark. An nexin -V -FITC binding was analyzed using A FACS C alibur flow cytometer (BD Biosciences, San Jose, CA). […]
# HOP-92 cells [3] = test: Cell cycle analysis by flow cytometry; assay type: cell-based, human; conditions: HOP-92, 10 µM, 24 h; for percentage of cells at the pre-G1 phase: control 3.05%; for cells at G2/M: control 12.98%; for proportion of cells in the S phase: control 31.46%; for percentage of cells in the G0/G1: control 55.38%
# Procedure: Antitumor drugs can cause cell cycle arrest and death via activating signalling pathways[85]^,[86]. Cell growth in various cell cycle phases is measured by flow cytometry[87]^,[88]. […] We have treated HOP-92 cells with 10 µM of compounds 10c and 10d to incubate for 24 h. […] According to these observations, Compounds 10c and 10d induce apoptosis in NSC lung cancer, HOP-92, cells via cell cycle arrest at the pre-G1 phase as well as the G2/M phase (Figure 8(D)). […]
# […] Cellular mechanistic analysis
# The examination of the cell cycle was done using flow cytometry. The test compound was applied to HOP-92 cells before they were cultured for 24 hours at 37 °C, 5% CO 2. After gathering and centrifuging the cell pellets, they were fixed in 70% (v/v) ethanol unde r the ice for 15 minutes. Pellets were once more collected and then incubated in a solution of 50 µg/mL propidium iodide (PI) and […]
# 0.1 mg/mL RNAse. […]
smiles,measurement,setting,value
"CCOC(=O)C1=C(N)N(c2ccccc2)C2=C(C(=O)CC(C)(C)C2)C1c1ccc(Cl)cc1Cl (racemic) [10c, (±)-Ethyl 2-amino-4–(2,4-dichlorophenyl)-7,7-dimethyl-5-oxo-1-phenyl-1,4,5,6,7,8-hexahydroquinoline-3-carboxylate]",GI50,NCI-H23,2.51 µM
same,IC50,[1],62.2 ± 3.14 µM
same,"total apoptosis, fold more than control",HOP-92 cells [2],approximately 10 fold
same,early apoptosis ratio,HOP-92 cells [2],8.74%
same,late apoptosis ratio,HOP-92 cells [2],15.44%
same,total apoptosis percentage,HOP-92 cells [2],24.18%
same,percentage of cells at the pre-G1 phase,HOP-92 cells [3],25.82%
same,cells at G2/M,HOP-92 cells [3],34.07%
same,proportion of cells in the S phase,HOP-92 cells [3],20.18%
same,percentage of cells in the G0/G1,HOP-92 cells [3],45.75%
"CCOC(=O)C1=C(N)N(c2ccc(Cl)cc2)C2=C(C(=O)CC(C)(C)C2)C1c1ccc(Cl)cc1Cl (racemic) [10d, (±)-Ethyl 2-amino-1–(4-chorophenyl)-4–(2,4-dichlorophenyl)-7,7-dimethyl-5-oxo-1-phenyl-1,4,5,6,7,8-hexahydroquinoline-3-carboxylate]",IC50,[1],55.5 ± 2.57 µM
same,"total apoptosis, fold more than control",HOP-92 cells [2],~8 fold
same,early apoptosis ratio,HOP-92 cells [2],7.68%
same,late apoptosis ratio,HOP-92 cells [2],12.15%
same,total apoptosis percentage,HOP-92 cells [2],19.83%
same,percentage of cells at the pre-G1 phase,HOP-92 cells [3],21.55%
same,cells at G2/M,HOP-92 cells [3],49.21%
same,proportion of cells in the S phase,HOP-92 cells [3],25.42%
same,percentage of cells in the G0/G1,HOP-92 cells [3],25.37%
